# Columns and labels:
# E. coli biofilm = experiment: Antibiofilm activity (crystal violet); assay type: cell-based, Escherichia coli; conditions: 24 h incubation, HdKTLR 262, HdKNL 262, HdPPP 130, HdVLPN 204, HdLPN 227 µg/mL, OD 595 nm
# Method: (§1) The antibiofilm activity was determined according to the following method, with some modifications. Taking the microplate from 24 h inhibition growth curves, the contents of the plate were discarded, and each well was carefully washed three times with distilled water to remove non-adherent cells. The adhered cells were fixed with 150 µL of methanol for 10 min. Then, the methanol was discarded, the plates were left to dry, and then, the fixed biofilm was stained with […] of crystal violet (CV) for 10 min. Excess stain was rinsed out by placing the plate under slow-running tap water. Once the plates were air-dried, the dye attached to the adherent cells was resolubilized by adding 150 µL of 33% (v/v) glacial acetic acid and agitated for 15 min. The optical density of the solution obtained was measured at 595 nm using a multidetection plate reader (Synergy H1, Winooski, VT, USA). All tests were carried out in duplicate, with a positive control using an inoculated culture in MH broth and a negative control using MH broth only. The results are presented as the percentage of biofilm formation, calculated according to the following formula, where the OD of the sample is the measured OD of the inoculated medium mixed with the peptides, and the OD of the positive control is the OD measured for the positive control.% Biofilm formation = (ODsample/ODpositive control) × 100(1)
# [1] = ORAC assay of peptide mixed with mucus (synergy); design: Increase in ORAC antioxidant activity of peptide combined with mucus versus sum of the individual systems: concentration or dose not given beside the values; conditions: for Increase in ORAC antioxidant activity of peptide combined with mucus versus sum of the individual systems: one part peptide to four parts mucus; for ORAC of the peptide alone in the synergy experiment: one part peptide to four parts phosphate buffer, Figure 3 captive, Figure 4 wild series
# Method: The ORAC assay followed the protocol outlined by Coscueta et al.. […] Fluorescence was monitored for 80 min at 1 min intervals. Each sample, standard, blank, or control, analysis was duplicated. The final ORAC values were expressed as µmol TE/µmol of peptide for the peptides and µmol TE /mg of protein for the digestion retentate and permeate contents. The synergistic interaction between the mucus and peptides was performed by mixing the peptides with mucus at a ratio of one part peptide to four parts mucus. In addition, control analyses were performed by mixing one part of the phosphate buffer with four parts of the mucus and another with one part of the peptide to four parts of the phosphate buffer. The mixtures were then tested in the ORAC assay. The final ORAC values were expressed as µM TE.
# S. enterica biofilm = experiment: Antibiofilm activity (crystal violet); assay type: cell-based, Salmonella enterica; conditions: 24 h incubation, HdKTLR 262, HdKNL 262, HdPPP 130, HdVLPN 204, HdLPN 227 µg/mL, OD 595 nm
# Method: as §1
# S. aureus biofilm = experiment: Antibiofilm activity (crystal violet); assay type: cell-based, Staphylococcus aureus; conditions: 24 h incubation, HdKTLR 262, HdKNL 262, HdPPP 130, HdVLPN 204, HdLPN 227 µg/mL, OD 595 nm
# Method: as §1
# [2] = tested on: Salmonella enterica serovar Enteritidis ATCC 13076; experiment: Growth inhibition curves; assay type: cell-based; conditions: HdKTLR 262, HdKNL 262, HdPPP 130 (5% DMSO), HdVLPN 204, HdLPN 227 µg/mL; MH broth, OD 600 nm hourly, 24 h, 37 °C
# Method: (§2) The antimicrobial activity of the mucus samples was evaluated following the method by against the following pathogenic bacteria: Gram-negative Escherichia coli ATCC 25922, Salmonella enterica serovar Enteritidis ATCC 13076, and Pseudomonas aeruginosa ATCC 27853 and Gram-positive Staphylococcus aureus ATCC 6538. The mucus samples were combined with a 1/10 ratio of inoculum containing 1% (v/v) of bacteria cultured for 24 h in MH broth. For the positive control, deionized water was used instead of mucus samples with a 1% inoculum, while deionized water with MH served as the negative control. A control using chloramphenicol was made at a concentration of 16 µg/mL for E. coli, S. enterica, and P. aeruginosa and 100 µg/mL for S. aureus. The mixture was then transferred to a 96-well microplate (Sarstedt, Germany), and the optical density (OD) at 600 nm was measured every hour for a 24 h period at 37 °C using a microplate reader (Multiskan GO, Thermo Scientific, Finland). An increase in OD indicated bacterial growth.
# [3] = tested on: Pseudomonas aeruginosa ATCC 27853; experiment: Growth inhibition curves; assay type: cell-based; conditions: HdKTLR 262, HdKNL 262, HdPPP 130 (5% DMSO), HdVLPN 204, HdLPN 227 µg/mL; MH broth, OD 600 nm hourly, 24 h, 37 °C
# Method: as §2
# [4] = tested on: Escherichia coli ATCC 25922; experiment: Growth inhibition curves; assay type: cell-based; conditions: HdKTLR 262, HdKNL 262, HdPPP 130 (5% DMSO), HdVLPN 204, HdLPN 227 µg/mL; MH broth, OD 600 nm hourly, 24 h, 37 °C
# Method: as §2
# [5] = tested on: Staphylococcus aureus ATCC 6538; experiment: Growth inhibition curves; assay type: cell-based; conditions: HdKTLR 262, HdKNL 262, HdPPP 130 (5% DMSO), HdVLPN 204, HdLPN 227 µg/mL; MH broth, OD 600 nm hourly, 24 h, 37 °C
# Method: as §2
# [6] = cited from earlier work
# Description: Table 4 Summary of peptide solubility and concentration values. | column: Solubility || A high-performance size exclusion chromatography (HPSEC) analysis was employed to validate the molecular weight of the selected peptides, HdKTLR, HdKNL, HdVLPN, and HdLPN, synthesized by GenScript Biotech (Rijswijk, The Netherlands), following the preparation instructions provided in the technical datasheet. […] At higher concentrations, viscosity may increase due to molecular interactions between DMSO, buffer ions, and water. In iso ...
Sequence,Biofilm formation versus control (E. coli biofilm),Increase in ORAC antioxidant activity of peptide combined with mucus versus sum of the individual systems ([1]; captive mucus sample) [%],ORAC of the peptide alone in the synergy experiment [1],Biofilm formation versus control (S. enterica biofilm),Biofilm formation versus control (S. aureus biofilm),Antimicrobial activity (growth inhibition curve) [2],Antimicrobial activity (growth inhibition curve) [3],Antimicrobial activity (growth inhibition curve) [4],Antimicrobial activity (growth inhibition curve) [5],Solubility (solvent) [6],Increase in ORAC antioxidant activity of peptide combined with mucus versus sum of the individual systems ([1]; wild mucus sample) [%]
DPPNPKNL [HdKNL],no significant differences,126,no antioxidant activity was detected,no significant differences,no significant differences,did not demonstrate antimicrobial potential,did not demonstrate antimicrobial potential,did not demonstrate antimicrobial potential,did not demonstrate antimicrobial potential,H2O,
EDNSELGQETPTLR [HdKTLR],no significant differences,,no antioxidant activity was detected,no significant differences,no significant differences,did not demonstrate antimicrobial potential,did not demonstrate antimicrobial potential,did not demonstrate antimicrobial potential,did not demonstrate antimicrobial potential,H2O,
PFPGPLPN [HdLPN],no significant differences,51,,no significant differences,no significant differences,did not demonstrate antimicrobial potential,did not demonstrate antimicrobial potential,did not demonstrate antimicrobial potential,did not demonstrate antimicrobial potential,H2O,54
VYPFPGPLPN [HdVLPN],no significant differences,31,,no significant differences,no significant differences,did not demonstrate antimicrobial potential,did not demonstrate antimicrobial potential,did not demonstrate antimicrobial potential,did not demonstrate antimicrobial potential,H2O,44

# — paper PMC11857211, “Bioprospecting Bioactive Peptides in Halobatrachus didactylus Body Mucus: From In Silico Insights to Essential In Vitro Validation” (Marine Drugs, 2025)
